Data set [1] in a line: In vivo PK in rats, i.v. administration. More on the design: species or system rat. The following applies: 2 mg/kg.
Data set [2] can be described thus: In vivo PK in rats, p.o. administration. Set-up: species or system rat. The following applies: 20 mg/kg.
The target of another data set is mGlu2 (Rattus norvegicus (Rat), UniProt P31421). Description: mGlu2 GIRK thallium flux assay.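 For all read-outs here: Cell-based assay, rate of fluorescence rise right after thallium plus agonist addition read on a kinetic imaging plate reader, normalized to vehicle and maximal agonist control.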 The following applies: for EC50: read-out: mGlu2 PAM EC50, test compound, then EC20 glutamate […] later in the presence of thallium; for Emax: read-out: mGlu2 PAM Max.
For the next data set, the target named is mGlu3 (Rattus norvegicus (Rat), UniProt P31422). The data set is described as follows: mGlu3 GIRK thallium flux assay.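 For all read-outs here: kinetic fluorescence slope read shortly after thallium plus agonist addition, scaled between vehicle and maximal agonist control.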 The following applies: for EC50: read-out: mGlu3 PAM EC50, PAM mode, test compound, then EC20 glutamate […] later in the presence of thallium, mean ± SEM; for Emax: read-out: mGlu3 PAM Max.
Setting [3] is: PAM mode, mean ± SEM, at least three experiments.

The values that follow come from patent US10099993B2, “Metabotropic glutamate receptor positive allosteric modulators (PAMS) and uses thereof” (Sanford-Burnham Medical Research Institute, priority 2014, dated 2018).

Chain of mGlu2 (P31421 19-872): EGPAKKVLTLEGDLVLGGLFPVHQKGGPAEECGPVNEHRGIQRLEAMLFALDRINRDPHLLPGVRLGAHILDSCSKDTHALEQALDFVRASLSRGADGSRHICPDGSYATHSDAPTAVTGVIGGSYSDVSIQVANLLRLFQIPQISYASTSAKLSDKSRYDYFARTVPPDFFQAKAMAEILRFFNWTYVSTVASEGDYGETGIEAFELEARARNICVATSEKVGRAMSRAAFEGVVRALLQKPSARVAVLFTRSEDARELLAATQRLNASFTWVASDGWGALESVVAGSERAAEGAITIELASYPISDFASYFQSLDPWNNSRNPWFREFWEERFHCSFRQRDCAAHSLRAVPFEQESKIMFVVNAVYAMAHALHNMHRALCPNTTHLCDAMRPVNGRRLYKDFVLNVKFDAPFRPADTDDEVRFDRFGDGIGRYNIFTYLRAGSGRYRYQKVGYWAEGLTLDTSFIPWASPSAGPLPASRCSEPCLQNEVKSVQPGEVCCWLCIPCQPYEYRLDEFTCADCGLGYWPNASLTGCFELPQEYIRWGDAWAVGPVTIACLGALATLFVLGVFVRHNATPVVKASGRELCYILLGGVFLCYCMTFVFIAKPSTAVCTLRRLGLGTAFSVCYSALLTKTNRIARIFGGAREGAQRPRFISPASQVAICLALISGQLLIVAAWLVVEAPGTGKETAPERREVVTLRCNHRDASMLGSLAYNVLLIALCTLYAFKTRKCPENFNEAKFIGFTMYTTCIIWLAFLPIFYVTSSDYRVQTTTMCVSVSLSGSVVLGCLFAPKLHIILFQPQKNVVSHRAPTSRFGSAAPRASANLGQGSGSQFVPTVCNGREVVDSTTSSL
Chain of mGlu3 (P31422 23-879): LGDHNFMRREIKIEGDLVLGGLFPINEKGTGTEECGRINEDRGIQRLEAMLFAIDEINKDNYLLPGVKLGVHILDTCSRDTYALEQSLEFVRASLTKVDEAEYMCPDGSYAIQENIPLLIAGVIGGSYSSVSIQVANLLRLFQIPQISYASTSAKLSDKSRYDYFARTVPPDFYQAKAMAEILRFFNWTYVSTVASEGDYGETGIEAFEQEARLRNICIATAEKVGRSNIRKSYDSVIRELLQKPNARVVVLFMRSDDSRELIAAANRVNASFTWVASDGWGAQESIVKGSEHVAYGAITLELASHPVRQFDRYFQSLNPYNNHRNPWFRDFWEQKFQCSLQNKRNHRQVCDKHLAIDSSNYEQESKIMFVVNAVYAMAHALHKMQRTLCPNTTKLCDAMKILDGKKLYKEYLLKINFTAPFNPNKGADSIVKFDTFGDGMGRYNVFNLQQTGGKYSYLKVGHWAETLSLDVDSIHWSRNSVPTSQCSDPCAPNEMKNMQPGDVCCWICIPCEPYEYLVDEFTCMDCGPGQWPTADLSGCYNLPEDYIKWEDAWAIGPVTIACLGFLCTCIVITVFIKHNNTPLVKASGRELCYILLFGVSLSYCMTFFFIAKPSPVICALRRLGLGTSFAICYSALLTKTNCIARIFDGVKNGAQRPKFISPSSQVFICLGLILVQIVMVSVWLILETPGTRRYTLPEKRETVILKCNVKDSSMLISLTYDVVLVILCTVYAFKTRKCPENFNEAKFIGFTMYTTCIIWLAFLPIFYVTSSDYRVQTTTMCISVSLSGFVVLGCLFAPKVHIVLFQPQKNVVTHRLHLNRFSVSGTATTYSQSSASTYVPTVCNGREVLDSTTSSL

What is called Cmax is the peak of the concentration-time curve. Broadly, the Tmax is the time from dosing to the highest level. In the case of `Cc1c(OCCCCOc2ccc(F)c(C(=O)O)c2)ccc(C(=O)CC(C)C)c1O` [Compound 36, 2-Fluoro-5-(4-(3-hydroxy-2-methyl-4-(3-methylbutanoyl)phenoxy)butoxy)benzoic acid], the “AUC(0→t)” value in data set [1] was 123.7 ± 7.7 (μmol/L)*min; in data set [2], 720.5 ± 283.4 (μmol/L) min. Besides, the Cmax in data set [1] (rat, iv, plasma) is 3.52 ± 0.13 µM; in data set [2] (rat, po, plasma), 12.5 µM. Further, the Vd in data set [1] (rat, plasma, iv, read-out: Vdss) is 0.89 ± 0.03 L/kg. Further, in data set [2], the “F, oral bioavailability” value is 58.2%. Moreover, the Plasma in data set [2] (harvested at or near the Tmax) was 4.23 ± 1.19 µM. Further, in data set [2] (rat, brain and plasma, po, read-out: Brain:Plasma ratio), the Kp is 0.06 ± 0.03. Also, in data set [2] (rat, plasma, po), the Tmax was 30 min.

For orientation: EC50 means the midpoint of the concentration-response curve. Regarding `Cc1cc(-c2cccc(COc3ccc(C(=O)CC(C)(C)C)c(O)c3C)c2)ccc1C(=O)O` [compound 143, 3′-((4-(3,3-Dimethylbutanoyl)-3-hydroxy-2-methylphenoxy)methyl)-3-methyl-[1,1′-biphenyl]-4-carboxylic acid], the EC50 on mGlu2 (setting [3]) was found to be 0.571 ± 0.138 µM; on mGlu3 it was 3.06 ± 0.624 µM. For the same compound, the Emax at mGlu2 came to 87 ± 11.7%; at mGlu3 it was 78.3 ± 21.1%.

Take `Cc1c(OCc2cccc(-c3cncc(C(=O)O)c3)c2)ccc(C(=O)CC(C)(C)C)c1O` [Compound 179, 5-(3-((4-(3,3-Dimethylbutanoyl)-3-hydroxy-2-methylphenoxy)methyl)phenyl)nicotinic acid]: the figures for the EC50 at mGlu2 (setting [3]) and on mGlu3 were 0.848 ± 0.009 µM and 1.01 ± 0.02 µM, respectively. In addition, the Emax worked out at 100 ± 2.9% at mGlu2 and 102 ± 3.5% at mGlu3.

Regarding `COc1ccc(-c2nsc(=O)[nH]2)cc1OCCCCOc1ccc(C(=O)CC(C)(C)C)c(O)c1C` [compound 100, 3-(3-(4-(4-(3,3-Dimethylbutanoyl)-3-hydroxy-2-methylphenoxy)butoxy)-4-methoxyphenyl)-1,2,4-thiadiazol-5(4H)-one], the results for the EC50 at mGlu2 (setting [3]) and at mGlu3 were 2.22 ± 0.709 µM and more than 30 µM, respectively. The Emax at mGlu2 stood at 68.1 ± 0.9%; on mGlu3, 33.9 ± 10.1%.

As for `Cc1c(OCc2cccc(-c3ccc(Cl)c(C(=O)O)c3)c2)ccc(C(=O)CC(C)C)c1C` [compound 170], on mGlu2 (PAM mode, % Glutamate Max, mean ± SEM, at least three experiments), the “mGlu2 PAM Max” value turned out to be 70.2 ± 2.9%. The EC50 at mGlu2 (setting [3]) was 0.815 ± 0.05 µM; on mGlu3, more than 30 µM.

Take `COc1ccc(C(=O)NC(C)(C)C)cc1OCCCCOc1ccc(C(=O)CC(C)(C)C)c(O)c1C` [compound 108, N-(tert-Butyl)-3-(4-(4-(3,3-dimethylbutanoyl)-3-hydroxy-2-methylphenoxy)butoxy)-4-methoxybenzamide]: the EC50 on mGlu2 (setting [3]) was more than 10 µM; on mGlu3, more than 30 µM. The Emax came out at 38.6 ± 1.1% on mGlu2 and 33.4 ± 5.3% on mGlu3.

With `COC(=O)c1ccc(OCc2cccc(COc3ccc(C(=O)CC4CCCC4)c(C)c3C)c2)cc1` [compound 155], the EC50 on mGlu2 (setting [3]) and on mGlu3 was more than 30 µM each time.

As for `COc1ccc(C(=O)N2CCOCC2)cc1OCCCCOc1ccc(C(=O)CC(C)(C)C)c(O)c1C` [compound 101, 1-(2-Hydroxy-4-(4-(2-methoxy-5-(morpholine-4-carbonyl)phenoxy)butoxy)-3-methylphenyl)-3,3-dimethylbutan-1-one], the EC50 at mGlu2 (setting [3]) was found to be 0.875 ± 0.003 µM; on mGlu3 it was 0.741 ± 0.006 µM. Further, the Emax at mGlu2 came out at 113 ± 1.2%; on mGlu3, 132 ± 5%.

With `Cc1c(OCCCCOc2ccccn2)ccc(C(=O)CC(C)C)c1O` [Compound 185], the values for the EC50 at mGlu2 (setting [3]) and on mGlu3 were 2.79 ± 0.102 µM and more than 30 µM, respectively. Moreover, the values for the Emax at mGlu2 and at mGlu3 were 66.3 ± 0.6% and 22.4 ± 4.3%, respectively.

In the case of `Cc1c(OCc2cnc(-c3cccc(C(=O)O)c3)cn2)ccc(C(=O)CC(C)(C)C)c1O` [compound 163, 3-(5-((4-(3,3-Dimethylbutanoyl)-3-hydroxy-2-methylphenoxy)methyl)pyrazin-2-yl)benzoic acid], the EC50 on mGlu2 (setting [3]) amounted to 1.45 ± 0.015 µM; at mGlu3, 0.268 ± 0.005 µM. For the same compound, the Emax worked out at 105 ± 1.6% on mGlu2 and 113 ± 5.4% at mGlu3.

Turning to `Cc1c(OCc2cccc(-c3cnccc3C(=O)O)c2)ccc(C(=O)CC(C)(C)C)c1O` [Compound 180, 3-(3-((4-(3,3-Dimethylbutanoyl)-3-hydroxy-2-methylphenoxy)methyl)phenyl)isonicotinic acid], the EC50 at mGlu2 (setting [3]) is 1.46 ± 0.02 µM; at mGlu3, more than 30 µM. The Emax at mGlu2 stood at 88.4 ± 1.5%; on mGlu3, 30.6 ± 9.2%.

For the compound `COc1cc(C(=O)NO)ccc1OCCCCOc1ccc(C(=O)CC(C)(C)C)c(O)c1C` [compound 88, 4-(4-(4-(3,3-Dimethylbutanoyl)-3-hydroxy-2-methylphenoxy)butoxy)-N-hydroxy-3-methoxybenzamide], the EC50 came to 2.42 ± 0.278 µM on mGlu2 (setting [3]) and 5.46 ± 0.184 µM at mGlu3. The Emax on mGlu2 stood at 86.4 ± 2.6%; on mGlu3 it was 53.5 ± 10.6%.

Turning to `Cc1c(OCc2cc(-c3cccc(C(=O)O)c3)ccn2)ccc(C(=O)CC(C)(C)C)c1O` [compound 153, 3-(2-((4-(3,3-Dimethylbutanoyl)-3-hydroxy-2-methylphenoxy)methyl)pyridin-4-yl)benzoic acid], the EC50 at mGlu2 (setting [3]) was 0.209 ± 0.003 µM; on mGlu3 it was 0.158 ± 0.002 µM. Besides, the Emax on mGlu2 is 106 ± 3.9%; on mGlu3, 107 ± 5.5%.

As to `Cc1c(OCc2cccc(-c3cccc(-c4noc(=O)[nH]4)c3)c2)ccc(C(=O)CC(C)(C)C)c1O` [compound 157, 3-(3′-((4-(3,3-Dimethylbutanoyl)-3-hydroxy-2-methylphenoxy)methyl)-[1,1′-biphenyl]-3-yl)-1,2,4-oxadiazol-5(4H)-one], the Emax on mGlu2 came to 111 ± 6.6%; at mGlu3 it was 105 ± 2.8%.

For `COc1ccc(C(=O)Nc2ccccn2)cc1OCCCCOc1ccc(C(=O)CC(C)(C)C)c(O)c1C` [compound 106, 3-(4-(4-(3,3-Dimethylbutanoyl)-3-hydroxy-2-methylphenoxy)butoxy)-4-methoxy-N-(pyridin-2-yl)benzamide], the Emax is 74.8 ± 5.9% on mGlu2 and 97.4 ± 9.4% on mGlu3.

In the case of `Cc1c(OCc2ccc(-c3cccc(C(=O)O)c3)cc2)ccc(C(=O)CC(C)(C)C)c1O` [compound 142, 4′-((4-(3,3-Dimethylbutanoyl)-3-hydroxy-2-methylphenoxy)methyl)-[1,1′-biphenyl]-3-carboxylic acid], the EC50 was 3.18 ± 0.626 µM at mGlu2 (setting [3]) and 2.2 ± 0.753 µM on mGlu3. The Emax is 97.1 ± 8.2% at mGlu2 and 88.7 ± 9.5% at mGlu3.

Regarding `Cc1c(OCc2cccc(-c3occc3C(=O)O)c2)ccc(C(=O)CC(C)(C)C)c1O` [Compound 178, 2-(3-((4-(3,3-Dimethylbutanoyl)-3-hydroxy-2-methylphenoxy)methyl)phenyl)furan-3-carboxylic acid], the EC50 at mGlu2 (setting [3]) was determined as 0.409 ± 0.105 µM; at mGlu3, 2.87 ± 1.12 µM. In addition, the Emax at mGlu2 worked out at 81.4 ± 10.1%; on mGlu3 it was 67.7 ± 11.7%.

As for `Cc1c(OCc2cccc(-c3ccc(O)c(C(=O)O)c3)c2)ccc(C(=O)CC(C)(C)C)c1O` [compound 144, 3′-((4-(3,3-dimethylbutanoyl)-3-hydroxy-2-methylphenoxy)methyl)-4-hydroxy-[1,1′-biphenyl]-3-carboxylic acid], the EC50 was determined as 0.232 ± 0.016 µM at mGlu2 (setting [3]) and 0.701 ± 0.176 µM at mGlu3. Besides, the Emax on mGlu2 was determined as 59.6 ± 4%; at mGlu3, 46.9 ± 5.6%.

As for `Cc1c(OCc2cccc(-c3cccc(C(=O)O)c3)n2)ccc(C(=O)CC(C)(C)C)c1O` [compound 159, 3-(6-((4-(3,3-Dimethylbutanoyl)-3-hydroxy-2-methylphenoxy)methyl)pyridin-2-yl)benzoic acid], the figures for the EC50 on mGlu2 (setting [3]) and on mGlu3 were 0.929 ± 0.012 µM and 0.967 ± 0.008 µM, respectively. Also, the Emax on mGlu2 was 104 ± 2.5%; on mGlu3, 115 ± 2.1%.

For the compound `Cc1c(OCc2cccc(-c3cc(C(=O)O)ccc3F)c2)ccc(C(=O)CC(C)(C)C)c1O` [compound 139, 3′-((4-(3,3-Dimethylbutanoyl)-3-hydroxy-2-methylphenoxy)methyl)-6-fluoro-[1,1′-biphenyl]-3-carboxylic acid], the EC50 at mGlu2 (setting [3]) worked out at 0.436 ± 0.084 µM; on mGlu3, 1.1 ± 0.33 µM. For the same compound, the Emax on mGlu2 is 88.2 ± 5.1%; at mGlu3 it was 85.6 ± 5.5%.

For `COc1ccc(C(=O)O)cc1-c1cccc(COc2ccc(C(=O)CC(C)(C)C)c(O)c2C)c1` [compound 134, 3′-((4-(3,3-Dimethylbutanoyl)-3-hydroxy-2-methylphenoxy)methyl)-6-methoxy-[1,1′-biphenyl]-3-carboxylic acid], the EC50 at mGlu2 (setting [3]) worked out at 0.118 ± 0.002 µM; at mGlu3, 0.324 ± 0.094 µM. The Emax on mGlu2 was determined as 89.6 ± 2.9%; on mGlu3, 76.4 ± 5.4%.

In the case of `Cc1c(OCc2cccc(-c3cccc(C(=O)NS(C)(=O)=O)c3)c2)ccc(C(=O)CC(C)(C)C)c1O` [compound 156, 3′-((4-(3,3-Dimethylbutanoyl)-3-hydroxy-2-methylphenoxy)methyl)-N-(methylsulfonyl)-[1,1′-biphenyl]-3-carboxamide], the Emax on mGlu2 stood at 105 ± 2.1%; on mGlu3, 103 ± 1.7%.

With `COC(=O)c1ccc(OCc2cccc(COc3ccc(C(=O)CC(C)C)c(O)c3C)c2)cc1` [compound 119], the EC50 on mGlu2 (setting [3]) and at mGlu3 was more than 30 µM throughout.

In the case of `CONC(=O)c1ccc(OC)c(OCCCCOc2ccc(C(=O)CC(C)(C)C)c(O)c2C)c1` [compound 90, 3-(4-(4-(3,3-Dimethylbutanoyl)-3-hydroxy-2-methylphenoxy)butoxy)-N,4-dimethoxybenzamide], the EC50 at mGlu2 (setting [3]) came to 3.89 ± 0.317 µM; on mGlu3, 6.6 ± 1.45 µM. Further, the figures for the Emax on mGlu2 and at mGlu3 were 82.4 ± 3.4% and 78.7 ± 6.2%, respectively.
